Data reported in patent publication US10428066B2, “Imidazo[4,5-C]pyridine and pyrrolo[2,3-C]pyridine derivatives as SSAO inhibitors” (PROXIMAGEN, LLC, priority 2013, dated 2019).

Experiments:
[1] = biological target: human ether a go-go related gene (hERG) K+ channel (Homo sapiens (Human), UniProt Q12809); experiment: hERG assay, IonWorks patch clamp electrophysiology; format: cell-based; settings: Chinese Hamster Lung cell line stably expressing hERG, maximum assay concentration 11 uM
Protocol: Compounds of the invention were tested for inhibition of the human ether a go-go related gene (hERG) K^+ channel using IonWorks patch clamp electrophysiology. 8 Point concentration-response curves were generated on two occasions using 3-fold serial dilutions from the maximum assay concentration (11 uM). Electrophysiological recordings were made from a Chinese Hamster Lung cell line stably expressing the full length hERG channel. Single cell ion currents were measured in the perforated patch clamp configuration (100 ug/mL amphoterocin) at room temperature using an IonWorks Quattro instrument. The internal solution contained 140 mM KCl, 1 mM MgCl2, 1 mM EGTA and 20 mM HEPES and was buffered to pH 7.3. The external solution contained 138 mM NaCl, 2.7 mM KCl, 0.9 mM CaCl2, 0.5 mM MgCl2, 8 mM Na2HPO4 and 1.5 mM KH2PO4, and was buffered to pH 7.3. […] This sequence was repeated 5 times at a frequency of 0.25 Hz. Currents were measured from the tail step at the 5th pulse, and referenced to the holding current. Compounds were incubated for 6-7 min prior to a second measurement of the hERG signal using an identical pulse train. A minimum of 17 cells were required for each plC50 curve fit. A control compound (quinidine) was used (see Table 20 below).

[2] = biological target: purified recombinantly expressed human SSAO (Homo sapiens (Human), UniProt Q16853); experiment: SSAO enzyme inhibition assay (HRP-coupled hydrogen peroxide detection or 14C-benzaldehyde detection, benzylamine substrate); format: biochemical; settings: human recombinant SSAO, RT
Protocol: All primary assays were performed at RT. with purified recombinantly expressed human SSAO. Enzyme was prepared essentially as described in Öhman et al. (Protein Expression and Purification 46 (2006) 321-331). In addition, secondary- and selectivity assays were performed using SSAO prepared from various tissues or purified rat recombinant SSAO. The enzyme activity was assayed with benzylamine as substrate by measuring either benzaldehyde production, using ^14C-labeled substrate, or by utilizing the production of hydrogen peroxide in a horseradish peroxidase (HRP) coupled reaction. Briefly, test compounds were dissolved in dimethyl sulfoxide (DMSO) to a concentration of 10 mM. Dose-response measurements were assayed by either creating 1:10 serial dilutions in DMSO to produce a 7 point curve or by making 1:3 serial dilutions in DMSO to produce 11 point curves.
In a horseradish peroxidase (HRP) coupled reaction, hydrogen peroxide oxidation of 10-acetyl-3,7-dihydroxyphenoxazine produced resorufin, which is a highly fluorescent compound (Zhout and Panchuk-Voloshina. Analytical Biochemistry 253 (1997) 169-174; Amplex® Red Hydrogen Peroxide/peroxidase Assay kit, Invitrogen A22188). Enzyme and compounds in 50 mM sodium phosphate, pH 7.4 were set to pre-incubate in flat-bottomed microtiter plates for approximately 15 min before initiating the reaction by addition of a mixture of HRP, benzylamine and Amplex reagent. Benzylamine concentration was fixed at a concentration corresponding to the Michaelis constant, determined using standard procedures. Fluorescence intensity was then measured at several time points during 1-2 h, exciting at 544 nm and reading the emission at 590 nm. For the human SSAO assay final concentrations of the reagents in the assay wells were: SSAO enzyme 1 ug/ml, benzylamine 100 uM, Amplex reagent 20 uM, HRP 0.1 U/mL and varying concentrations of test compound. The inhibition was measured as % decrease of the signal compared to a control without inhibitor (only diluted DMSO). The background signal from a sample containing no SSAO enzyme was subtracted from all data points. Data was fitted to a four parameter logistic model and IC50 values were calculated using the GraphPad Prism 4 or XLfit 4 programs.
SSAO activity was assayed using 14C-labeled benzylamine and analysed by measuring radioactive benzaldehyde. In a white 96-well optiplate (Packard), 20 uL of diluted test compound was pre-incubated at room temperature with 20 uL SSAO enzyme for approximately 15 min with continuous agitation. All dilutions were made with PBS. The reaction was initiated by adding 20 uL of the benzylamine substrate solution containing [7-14C] Benzylamine hydrochloride (CFA589, GE Healthcare). The plate was incubated for 1 h as above after which the reaction was stopped by acidification (10 uL 1M aq HCl). Then 90 uL Micro Scint-E solution (Perkin-Elmer) was added to each well and the plate was continuously mixed for 15 min. Phase separation occurred instantly and activity was read in a Topcount scintillation counter (Perkin-Elmer). In the final reaction well, the human recombinant SSAO concentration was 10 ug/ml. In order to optimize sensitivity, the substrate concentration was decreased as compared to the HRP coupled assay in order to get a higher fraction of radioactive product. In the human SSAO assay, benzylamine concentration was 40 uM (0.2 uCi/mL). Data was analysed as above.

Chain of purified recombinantly expressed human SSAO (Q16853 29-763): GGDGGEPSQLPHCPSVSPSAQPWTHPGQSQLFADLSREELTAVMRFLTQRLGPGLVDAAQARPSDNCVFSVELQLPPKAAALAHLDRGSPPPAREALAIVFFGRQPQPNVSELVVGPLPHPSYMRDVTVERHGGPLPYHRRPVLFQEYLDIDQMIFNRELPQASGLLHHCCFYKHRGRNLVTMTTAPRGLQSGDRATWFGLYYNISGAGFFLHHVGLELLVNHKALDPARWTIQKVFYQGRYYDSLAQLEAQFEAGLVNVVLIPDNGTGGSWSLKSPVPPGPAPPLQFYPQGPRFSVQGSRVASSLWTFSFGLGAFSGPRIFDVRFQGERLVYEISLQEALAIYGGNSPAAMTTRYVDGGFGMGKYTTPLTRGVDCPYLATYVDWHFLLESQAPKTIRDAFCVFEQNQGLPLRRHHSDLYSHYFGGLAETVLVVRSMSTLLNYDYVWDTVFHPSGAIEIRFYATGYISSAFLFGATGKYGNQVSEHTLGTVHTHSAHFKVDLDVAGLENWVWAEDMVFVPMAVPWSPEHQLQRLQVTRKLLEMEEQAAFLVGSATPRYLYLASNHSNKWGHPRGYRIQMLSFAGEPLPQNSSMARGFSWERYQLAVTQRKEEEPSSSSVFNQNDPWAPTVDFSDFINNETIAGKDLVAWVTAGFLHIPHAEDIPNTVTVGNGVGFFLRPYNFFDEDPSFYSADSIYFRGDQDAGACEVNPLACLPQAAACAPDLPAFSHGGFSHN
Chain of human ether a go-go related gene (hERG) K+ channel (Q12809 whole entry): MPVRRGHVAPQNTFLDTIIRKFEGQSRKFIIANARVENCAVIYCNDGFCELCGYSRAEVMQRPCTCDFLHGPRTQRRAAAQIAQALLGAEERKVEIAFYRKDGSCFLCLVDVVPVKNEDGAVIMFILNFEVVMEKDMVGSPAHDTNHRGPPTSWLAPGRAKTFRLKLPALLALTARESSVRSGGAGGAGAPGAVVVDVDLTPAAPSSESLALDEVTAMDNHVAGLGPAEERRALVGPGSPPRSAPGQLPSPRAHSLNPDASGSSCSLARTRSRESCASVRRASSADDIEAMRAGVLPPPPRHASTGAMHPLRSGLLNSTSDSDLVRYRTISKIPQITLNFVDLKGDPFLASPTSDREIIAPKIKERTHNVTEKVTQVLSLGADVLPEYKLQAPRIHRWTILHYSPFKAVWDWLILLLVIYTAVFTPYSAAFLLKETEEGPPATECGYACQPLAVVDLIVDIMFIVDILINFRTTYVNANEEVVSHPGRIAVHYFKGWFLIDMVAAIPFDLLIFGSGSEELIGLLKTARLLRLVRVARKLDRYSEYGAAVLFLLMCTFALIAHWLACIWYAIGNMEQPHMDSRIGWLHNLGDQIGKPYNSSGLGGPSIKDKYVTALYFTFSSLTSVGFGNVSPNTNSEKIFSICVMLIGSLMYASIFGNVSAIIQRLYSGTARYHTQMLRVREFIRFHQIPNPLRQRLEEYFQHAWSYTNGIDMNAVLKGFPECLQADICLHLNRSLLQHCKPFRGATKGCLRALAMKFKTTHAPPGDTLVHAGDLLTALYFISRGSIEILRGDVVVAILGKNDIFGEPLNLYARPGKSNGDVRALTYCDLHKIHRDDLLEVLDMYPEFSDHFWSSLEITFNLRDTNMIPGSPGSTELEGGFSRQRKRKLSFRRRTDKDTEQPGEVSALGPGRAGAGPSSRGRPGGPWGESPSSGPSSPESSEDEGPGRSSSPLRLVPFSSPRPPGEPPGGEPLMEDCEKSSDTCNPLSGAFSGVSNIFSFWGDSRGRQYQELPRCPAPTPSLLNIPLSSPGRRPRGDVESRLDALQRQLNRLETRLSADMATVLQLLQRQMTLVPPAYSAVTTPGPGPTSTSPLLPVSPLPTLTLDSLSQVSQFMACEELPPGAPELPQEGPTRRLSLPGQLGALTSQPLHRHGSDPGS

SMILES	IC50 [2] [nM]	IC50 [1] [nM]
Nc1cc(-c2cc3ccncc3n2-c2ccc(Cl)cc2)ccn1 [Example 147, 4-[1-(4-Chlorophenyl)-1H-pyrrolo[2,3-c]pyridin-2-yl]pyridin-2-amine]	–	1000 to 10000
Cc1ccc(-n2c(-c3ccc(N4CCOCC4)nc3)nc3ccncc32)c(F)c1 [Example 67, 4-{5-[3-(2-Fluoro-4-methylphenyl)-3H-imidazo[4,5-c]pyridin-2-yl]pyridin-2-yl}morpholine]	–	1000 to 10000
O=c1cc(-c2cc3ccncc3n2-c2ccc(Cl)cc2)ccn1C1CC1 [Example 138, 4-[1-(4-Chlorophenyl)-1H-pyrrolo[2,3-c]pyridin-2-yl]-1-cyclopropyl-1,2-dihydropyridin-2-one]	–	1000 to 10000
Clc1ccc(-n2c(-c3cnc(NC4CCOCC4)nc3)cc3ccncc32)cc1 [Example 139, 5-[1-(4-Chlorophenyl)-1H-pyrrolo[2,3-c]pyridin-2-yl]-N-(oxan-4-yl)pyrimidin-2-amine]	–	100 to 1000
Clc1ccc(-n2c(-c3ccc(N4CCOCC4)nn3)nc3ccncc32)cc1 [Example 4, 4-{6-[3-(4-Chlorophenyl)-3H-imidazo[4,5-c]pyridin-2-yl]pyridazin-3-yl}morpholine]	–	1000 to 10000
Clc1ccc(-n2c(-c3ccc(N4CCOCC4)nc3)nc3ccncc32)cc1 [Example 47, 4-{5-[3-(4-Chlorophenyl)-3H-imidazo[4,5-c]pyridin-2-yl]pyridin-2-yl}morpholine]	–	1000 to 10000
CS(=O)(=O)NC1CCN(c2ccc(-c3nc4ccncc4n3-c3ccc(Cl)cc3)cn2)CC1 [Example 88, N-(1-{5-[3-(4-Chlorophenyl)-3H-imidazo[4,5-c]pyridin-2-yl]pyridin-2-yl}piperidin-4-yl)methanesulfonamide]	–	1000 to 10000
Clc1ccc(-n2c(-c3ccc(CN4CCOCC4)nc3)cc3ccncc32)cc1 [Example 140, 4-({5-[1-(4-Chlorophenyl)-1H-pyrrolo[2,3-c]pyridin-2-yl]pyridin-2-yl}methyl)morpholine]	–	1000 to 10000
Clc1ccc(-n2c(-c3cnc(N4CCOCC4)nc3)cc3ccncc32)cc1 [Example 127, 4-{5-[1-(4-Chlorophenyl)-1H-pyrrolo[2,3-c]pyridin-2-yl]pyrimidin-2-yl}morpholine]	–	100 to 1000
O=c1cc(-c2cc3ccncc3n2-c2ccc(Cl)cc2)cc[nH]1 [Example 142, 4-[1-(4-Chlorophenyl)-1H-pyrrolo[2,3-c]pyridin-2-yl]-1,2-dihydropyridin-2-one]	50 to 200	1000 to 10000
Clc1ccc(-n2c(-c3cnc(N4CCOCC4)nc3)nc3ccncc32)cc1 [Example 51, 4-{5-[3-(4-Chlorophenyl)-3H-imidazo[4,5-c]pyridin-2-yl]pyrimidin-2-yl}morpholine]	–	1000 to 10000
CN(C)c1ccc(-c2nc3ccncc3n2-c2ccc(F)cc2)cn1 [Example 71, 5-[3-(4-Fluorophenyl)-3H-imidazo[4,5-c]pyridin-2-yl]-N,N-dimethylpyridin-2-amine]	200 to 1200	–
NC(=O)N1CCN(c2ncc(-c3nc4ccncc4n3-c3ccc(Cl)cc3)o2)CC1 [Example 93, 4-{5-[3-(4-Chlorophenyl)-3H-imidazo[4,5-c]pyridin-2-yl]-1,3-oxazol-2-yl}piperazine-1-carboxamide]	50 to 200	–

More lines, main results first:

IC50 [2] [nM]	SMILES	IC50 [1] [nM]
200 to 1200	Clc1ccc(-n2c(-c3ccncc3)cc3ccncc32)cc1 [Example 120, 4-[1-(4-Chlorophenyl)-1H-pyrrolo[2,3-c]pyridin-2-yl]pyridine]	1000 to 10000
200 to 1200	c1ccc(-n2c(-c3cnc(N4CCOCC4)nc3)cc3ccncc32)cc1 [Example 131, 4-(5-{1-Phenyl-1H-pyrrolo[2,3-c]pyridin-2-yl}pyrimidin-2-yl)morpholine]	1000 to 10000
200 to 1200	Fc1cnccc1-c1cc2ccncc2n1-c1ccc(Cl)cc1 [Example 152, 4-[1-(4-Chlorophenyl)-1H-pyrrolo[2,3-c]pyridin-2-yl]-3-fluoropyridine]	1000 to 10000
50 to 200	Clc1ccc(-n2c(-c3ccncc3Cl)cc3ccncc32)cc1 [Example 153, 3-Chloro-4-[1-(4-chlorophenyl)-1H-pyrrolo[2,3-c]pyridin-2-yl]pyridine]	1000 to 10000
50 to 200	Clc1ccc(-n2c(-c3cccnc3)cc3ccncc32)cc1 [Example 122, 3-[1-(4-Chlorophenyl)-1H-pyrrolo[2,3-c]pyridin-2-yl]pyridine]	1000 to 10000
50 to 200	Clc1ccc(-n2c(-c3cnc(N4CCOCC4)cn3)nc3ccncc32)cc1 [Example 5, 4-{5-[3-(4-Chlorophenyl)-3H-imidazo[4,5-c]pyridin-2-yl]pyrazin-2-yl}morpholine]	–
50 to 200	FC(F)(F)c1ccc(-n2c(-c3ccc(N4CCOCC4)nc3)nc3ccncc32)cc1 [Example 66, 4-(5-{3-[4-(Trifluoromethyl)phenyl]-3H-imidazo[4,5-c]pyridin-2-yl}pyridin-2-yl)morpholine]	–
50 to 200	Fc1ccc(-n2c(-c3cnc(NC4CC4)nc3)nc3ccncc32)cc1 [Example 10, N-Cyclopropyl-5-[3-(4-fluorophenyl)-3H-imidazo[4,5-c]pyridin-2-yl]pyrimidin-2-amine]	–
50 to 200	Cc1ccc(-n2c(-c3ccc(N4C[C@@H](C)O[C@@H](C)C4)nc3)nc3ccncc32)cn1 [Example 103, (2R,6S)-2,6-Dimethyl-4-{5-[3-(6-methylpyridin-3-yl)-3H-imidazo[4,5-c]pyridin-2-yl]pyridin-2-yl}morpholine; tris(trifluoroacetic acid)]	–
